# Reference: patent US12215107B1, “Pyrazino[1′,2′:1,5]pyrazolo[4,3-c] [2,6] naphthyridine compounds as CK2 inhibitors” (KING FAISAL UNIVERSITY, priority 2024, dated 2025)
# Key:
# PC3 (prostate) = experiment: MTT in vitro cytotoxic activity assay, PC3; format: cell-based; conditions: Homo sapiens, Prostate cell, cells exposed for 96 hours, read-out: Cytotoxicity activity IC50 (50% inhibition of cell proliferation)
# Description: (§1) Compounds 1-16 were screened for their in vitro cytotoxic activity utilizing a 3-(4,5-dimethyl-thiazol-2-yl)-2,5-diphenyltetrazolium bromide (MTT) assay against selected cancer human cell lines consisting of PC3 (prostate), HCT116 (colon), A375 (melanoma), H1299 (lung), MIAPaCa-2 (pancreas), HL60 (leukemia), MCF7 (breast), MDA-MB-231 (breast) (T. Mosmann, J. Immunol. Meth., 1983, 65, 55-63). The cells were cultured at 37° C. in RMPI1640 medium supplemented with 10% fetal bovine serum, 50 IU/mL penicillin, and 50 μg/mL streptomycin in a 5% CO2 incubator. All cells were sub-cultured 3 times/week by trypsinisation. Viable cells were seeded and allowed to adhere for 12 hours before a test drug was added in 96-well plates at an initial density of 1.0×10^5 cells/mL. Tumor cell lines were separately exposed to various concentrations of the tested compounds followed by incubation at a temperature of 37° C. during 96 hours inside a medium of fresh RMPI 1640. Cells were subsequently incubated at 37° C. using MTT at 0.5 mg/mL during 4 hours. After removal of supernatant, formazan crystals were dissolved in isopropanol and the optical density was measured at 570 nm. CX-4945 was used as a positive control.
# HCT116 (colon) = experiment: MTT in vitro cytotoxic activity assay, HCT116; format: cell-based; conditions: Homo sapiens, HCT-116, cells exposed for 96 hours, read-out: Cytotoxicity activity IC50 (50% inhibition of cell proliferation)
# Description: as §1
# A375 (melanoma) = experiment: MTT in vitro cytotoxic activity assay, A375; format: cell-based; conditions: Homo sapiens, A-375, cells exposed for 96 hours, read-out: Cytotoxicity activity IC50 (50% inhibition of cell proliferation)
# Description: as §1
# H1299 (lung) = experiment: MTT in vitro cytotoxic activity assay, H1299; format: cell-based; conditions: Homo sapiens, NCI-H1299, cells exposed for 96 hours, read-out: Cytotoxicity activity IC50 (50% inhibition of cell proliferation)
# Description: as §1
# MIAPaCa-2 (pancreas) = experiment: MTT in vitro cytotoxic activity assay, MIAPaCa-2; format: cell-based; conditions: Homo sapiens, MIA PaCa-2, cells exposed for 96 hours, read-out: Cytotoxicity activity IC50 (50% inhibition of cell proliferation)
# Description: as §1
# HL60 (leukemia) = experiment: MTT in vitro cytotoxic activity assay, HL60; format: cell-based; conditions: Homo sapiens, HL-60, cells exposed for 96 hours, read-out: Cytotoxicity activity IC50 (50% inhibition of cell proliferation)
# Description: as §1
# MCF7 (breast) = experiment: MTT in vitro cytotoxic activity assay, MCF7; format: cell-based; conditions: Homo sapiens, cells exposed for 96 hours, read-out: Cytotoxicity activity IC50 (50% inhibition of cell proliferation)
# Description: as §1
# MDA-MB-231 (breast) = experiment: MTT in vitro cytotoxic activity assay, MDA-MB-231; format: cell-based; conditions: Homo sapiens, cells exposed for 96 hours, read-out: Cytotoxicity activity IC50 (50% inhibition of cell proliferation)
# Description: as §1
# [1] = target: T1, recombinant human CK2 (RRββ-holoenzyme) (Homo sapiens, UniProt P68400); experiment: CK2 Kinase Assay (33P-ATP, filter plate); format: biochemical; conditions: final ATP concentration 15 μM, 10 minutes at 30° C.; read-out: protein kinase CK2 IC50
# T1 construct: purchased Millipore
# T1 sequence (P68400 whole entry): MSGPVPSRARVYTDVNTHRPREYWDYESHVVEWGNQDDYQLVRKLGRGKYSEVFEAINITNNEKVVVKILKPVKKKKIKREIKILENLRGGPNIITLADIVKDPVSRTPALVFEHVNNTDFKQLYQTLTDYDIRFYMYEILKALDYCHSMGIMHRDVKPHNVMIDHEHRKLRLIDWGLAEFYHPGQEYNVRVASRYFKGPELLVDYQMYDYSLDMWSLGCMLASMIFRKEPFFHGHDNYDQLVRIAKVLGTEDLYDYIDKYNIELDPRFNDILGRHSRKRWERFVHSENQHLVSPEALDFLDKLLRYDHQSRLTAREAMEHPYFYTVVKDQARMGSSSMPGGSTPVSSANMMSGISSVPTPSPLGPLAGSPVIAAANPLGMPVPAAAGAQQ
# T1 sequence (P67870 whole entry partner): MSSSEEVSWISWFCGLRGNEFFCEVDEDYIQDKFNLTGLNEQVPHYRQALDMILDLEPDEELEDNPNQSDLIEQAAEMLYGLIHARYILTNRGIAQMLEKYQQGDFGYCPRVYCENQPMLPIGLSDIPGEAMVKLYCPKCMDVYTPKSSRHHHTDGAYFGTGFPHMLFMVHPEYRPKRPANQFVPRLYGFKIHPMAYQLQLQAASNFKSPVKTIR
# Description: CK2 Kinase Assay was conducted using the protocol as described in Pierre F. et al; J. Med. Chem. 2011, 54, 635-654. The tested compounds in aqueous solution were added at a volume of 10 μL to a reaction mixture comprising 10 μL of assay dilution buffer (ADB; 20 mM MOPS, pH 7.2, 25 mM β-glycerol phosphate, 5 mM EGTA, 1 mM sodium orthovanadate, and 1 mM dithiothreitol), 10 μL of substrate peptide (RRRDDDSDDD, dissolved in ADB at a concentration of 1 mM), 10 μL of recombinant human CK2 (RRββ-holoenzyme, 25 ng dissolved in ADB; Millipore). Reactions were initiated by the addition of 10 μL of ATP solution (90% 75 mMMgCl2, 75 μM ATP (final ATP concentration: 15 μM) dissolved in ADB; 10% [γ-33P] ATP (stock 1 mCi/100 μL; 3000 Ci/mmol (Perkin-Elmer) and maintained for 10 minutes at 30° C. The reactions were quenched with 100 μL of 0.75% phosphoric acid and then transferred to and filtered through a phosphor cellulose filter plate (Millipore). After washing each well five times with 0.75% phosphoric acid, the plate was dried under vacuum for 5 min and, following the addition of 15 μL of scintillation fluid to each well, the residual radioactivity was measured using a Wallac […]. The IC50 values were derived from eight concentrations of test inhibitors.
smiles,measurement,setting,value
"Clc1cccc(Nc2nc3c(nn4ccncc34)c3cnccc23)c1 [Compound (1), N-(3-chlorophenyl)pyrazino[1′,2′:1,5]pyrazolo[4,3-c][2,6]naphthyridin-5-amine]",IC50,PC3 (prostate),1.1 µM
same,IC50,HCT116 (colon),1.5 µM
same,IC50,A375 (melanoma),3.2 µM
same,IC50,H1299 (lung),1.9 µM
same,IC50,MIAPaCa-2 (pancreas),1 µM
same,IC50,HL60 (leukemia),3.7 µM
same,IC50,MCF7 (breast),4.9 µM
same,IC50,MDA-MB-231 (breast),4.1 µM
same,IC50,[1],0.022 µM
